This is an account of results in ChEMBL document CHEMBL1124653, “11 beta-nitrate estrane analogues: potent estrogens” (1989).

SMILES strings stand for the structures.

This assay concerns the target Estrogen receptor (Rattus norvegicus) (UniProt P06211+Q62986). Briefly: Estrogenic potency in rats by subcutaneous dose relative to estradiol. The class given is functional.
For the compound `CC(=O)Oc1ccc2c(c1)CC[C@H]1[C@@H]3CCC(=O)[C@@]3(C)C[C@H](O[N+](=O)[O-])[C@]21O`, the Relative potency worked out at 4.

`CC(=O)Oc1ccc2c(c1)C[C@@H](C)[C@@H]1[C@@H]2[C@@H](O[N+](=O)[O-])C[C@]2(C)C(=O)CC[C@@H]12` (stereo in doubt; 2b) registered a Relative potency of 34.

On to `CC(=O)Oc1ccc2c(c1)C[C@@H](C)[C@@H]1[C@@H]2[C@@H](O[N+](=O)[O-])C[C@]2(C)C(=O)CC[C@@H]12` (stereo in doubt; 3b), for which the Relative potency was 7470.
